The record followed here is patent publication US6696470B2, “Pyridylthiophene compounds” (Pfizer Inc., priority 1997, dated 2004).

Molecules are shown by their SMILES.

For orientation: melting point means the temperature, or range, at which the solid turns liquid.

Take `Cc1c(-c2ccncc2)sc(-c2ccncc2)c1C=NO.Cl.Cl`: the melting point is 258 to 261 °C (dec.).
In the case of `CC(=O)c1cc(-c2ccncc2)sc1N(C)Cc1ccccc1.Cl`, the melting point is 199 to 202 °C.
The compound `CC(=O)c1cc(-c2ccncc2)sc1Oc1cccc(Oc2ccc(F)cc2)c1.Cl` yielded a melting point of 251 to 253 °C.
Consider `CCOC(=O)CCc1cc(-c2ccncc2)sc1-c1ccncc1.Cl.Cl`, for which the melting point is 205 to 208 °C (dec.).
Consider `Cc1c(-c2ccncc2)sc(-c2ccncc2)c1CNO.Cl.Cl.Cl`, for which the melting point is 219 to 222 °C (dec.).
`CC(=O)c1c(CC(C)C)oc(-c2ccncc2)c1C.Cl` gave a melting point of 171 to 174 °C.
Under `CC(=O)c1c(C)oc(-c2ccncc2)c1C` [Example 1, 3-Acetyl-2,4-dimethyl-5-(4-pyridyl)furan] stands 65 to 66.5 °C.
For `Cc1c(-c2ccncc2)oc2c1C(=O)CCC2` [Example 2, 3-Methyl-4-oxo-2-(4-pyridyl)-4,5,6,7-tetrahydrobenzofuran], the melting point lay within 136 to 138 °C.
Take `CC(=O)c1c(-c2ccccc2)oc(-c2ccncc2)c1C` [Example 3, 3-Acetyl-4-methyl-2-phenyl-5-(4-pyridyl)furan]: the melting point is 108 to 110 °C.
`Cc1c(-c2ccncc2)oc2c1C(=O)C(C)(C)CC2` [Example 6, 4-Oxo-2-(4-pyridyl)-3,5,5-trimethyl-4,5,6,7-tetrahydrobenzofuran] returned a melting point of 133 to 134 °C.
With `Cc1c(-c2ccncc2)oc2c1C(=O)CCC2(C)C` [Example 7, 4-Oxo-2-(4-pyridyl)-3,7,7-trimethyl-4,5,6,7-tetrahydrobenzofuran], the melting point was 138 to 140 °C.
As for `Cc1c(-c2ccncc2)oc2c1C(=O)OC(C)C2` (stereo not shown) [Example 10, 6,7-Dihydro-3,6-dimethyl-2-(4-pyridyl)-furo[3,2-c]pyran-4-one], the melting point fell in the range of 157 to 160 °C.
As to `CCc1c(-c2ccncc2)oc2c1C(=O)CCC2(C)C` [Example 11, 3-Ethyl-7,7-dimethyl-4-oxo-2-(4-pyridyl)-4,5,6,7-tetrahydrobenzofuran], the melting point lay in the range of 86 to 88 °C.
The compound `CC1(C)CCC(=O)c2c1oc(-c1ccncc1)c2-c1ccccc1` [Example 12, 7,7-Dimethyl-3-phenyl-4-oxo-2-(4-pyridyl)4,5,6,7-tetrahydrobenzofuran] came in with a melting point of 156 to 157 °C.
In turn, `CC(=O)c1sc(-c2ccncc2)c(C)c1-c1ccncc1` [Example 13, 2-Acetyl-4-methyl-3,5-di(4-pyridyl)thiophene] yielded a melting point of 117 to 118 °C.
Regarding `CC(=O)c1sc(-c2ccncc2)c(-c2ccncc2)c1C` [Example 14, 2-Acetyl-3-methyl-4,5-di(4-pyridyl)thiophene], the melting point lay in the range of 140 to 142 °C.
Compound `CC(=O)c1c(-c2ccncc2)sc(-c2ccncc2)c1C` [Example 15, 3-Acetyl-4-methyl-2,5-di(4-pyridyl)thiophene] showed a melting point of 137 to 138 °C.
As to `O=C1CCCc2sc(-c3ccncc3)cc21` [Example 16, 4-Oxo-2-(4-pyridyl)-4,5,6,7-tetrahydro-benzo(b)thiophene], the melting point fell in the range of 156 to 158 °C.
As for `CC(=O)c1c(-c2ccncc2)sc(Cl)c1C` [Example 17, 3-Acetyl-5-chloro-4-methyl-2-(4-pyridyl)thiophene], the melting point is 60 to 61 °C.
On to `CC(=O)c1c(C)sc(-c2ccncc2)c1C` [Example 18, 3-Acetyl-2,4-dimethyl-5-(4-pyridyl)thiophene], for which the melting point was in the range of 80 to 81 °C.
Consider `CC(=O)c1c(-c2ccccc2)sc(-c2ccncc2)c1C` [Example 19, 3-Acetyl-4-methyl-2-phenyl-5-(4-pyridyl)thiophene], for which the melting point lay in the range of 111 to 112 °C.
Under `Cc1c(-c2ccncc2)sc2c1C(=O)CCC2` [Example 20, 3-Methyl-4-oxo-2-(4-pyridyl)4,5,6,7-tetrahydrobenzothiophene] stands 129 to 130 °C.
